“Also recorded” adds a separate entry of the source.
What was measured:
[1] = tested on: PV immunoreactive interneurons (PVI) in the PFC of NVHL rats; assay: PV interneuron counts (stereology) in PFC of NVHL rats; type: in vivo, Sprague-Dawley rats; conditions: adult (P61) NVHL rats; drinking water 900 mg/l, P5 to P50
Method: This example describes reversal of prepulse inhibition through treatment of ebselen. One of the most replicated findings in schizophrenia research is a reduction of markers associated with cortical inhibitory interneurons (Lewis et al., 2012). […] Whether parvalbumin (PV) positive interneurons in the PFC, including the dorsal prelimbic and anterior cingulate cortex (ACC), are altered in NVHL rats using unbiased stereological counting techniques was assessed. Between postnatal day (P) 21 and P61, the number of PV immunoreactive interneurons (PVI) increased in sham-operated rats, but not in NVHL rats as illustrated in FIGS. 7A and 1B.
Animals: Timed-pregnant Sprague-Dawley rats were obtained at gestational days 13-15 from Charles River (Wilmington, MA) and were individually housed with free access to food and water in a temperature- and humidity-controlled environment with a 12:12h light/dark cycle (lights on at 7:00 AM). When pups reached P5, half of the dams received NAC in their drinking water. Pups were left undisturbed until P7-9 when healthy offspring were randomly separated and received either NVHL or sham surgery. At P21, male and female pups were either transcardially perfused with 4% paraformaldehyde for immunocytochemistry or weaned and housed in groups of two to three, counterbalanced across lesion status. NAC treatment lasted throughout adolescence until P50. […]

[2] = tested on: 8-oxo-dG staining in the PFC of NVHL rats; assay: 8-oxo-dG labeling (DNA oxidation) in PFC of NVHL rats; type: in vivo, Sprague-Dawley rats
From the text: To assess oxidative stress, DNA oxidation with 8-oxo-7,8-dihydro-20-deoxyguanine (8-oxo-dG) labeling was quantified. […] 3-NT indicates nitration of proteins due to oxidative and nitrosative stress (Radi, 2004), and its increase in NVHL rats was prevented by NAC treatment during development (as shown in FIGS. 9A and 9B). […] A possible explanation for the levels of oxidative stress detected in the adult PFC following an NVHL is the reduced glutamatergic input from ventral hippocampus during development, as blocking NMDA receptors induces oxidative stress in PVI (Behrens et al., 2007).
To determine the types of interneurons expressing oxidative stress in NVHL rats, 8-oxo-dG with PV, calbindin (CB) and calretinin (CR) was co-labeled. […] About 50% of PVI were co-labeled with 8-oxo-dG, indicating oxidative stress is pervasive in this cell population. A marker of PVI maturation is Wisteria Floribunda agglutinin (WFA), a lectin that recognizes the perineuronal nets (PNN) enwrapping mature cortical PVI. […] PVI may be highly exposed to increased oxidative stress because they make up the majority of fast-spiking interneurons and their high energy metabolism may generate more reactive oxygen species than non-fast spiking neurons.
Animals: Timed-pregnant Sprague-Dawley rats were obtained at gestational days 13-15 from Charles River (Wilmington, MA) and were individually housed with free access to food and water in a temperature- and humidity-controlled environment with a 12:12h light/dark cycle (lights on at 7:00 AM). When pups reached P5, half of the dams received NAC in their drinking water. Pups were left undisturbed until P7-9 when healthy offspring were randomly separated and received either NVHL or sham surgery. At P21, male and female pups were either transcardially perfused with 4% paraformaldehyde for immunocytochemistry or weaned and housed in groups of two to three, counterbalanced across lesion status. NAC treatment lasted throughout adolescence until P50. After reaching adulthood (>P60), animals were either perfused with 4% paraformaldehyde for immunocytochemistry, perfused with artificial cerebrospinal fluid (aCSF) for slice electrophysiology, utilized for in vivo intracellular recordings, or tested for PPI or MMN.
Neonatal ventral hippocampal lesion surgery: Between P7 and P9, pups (15-20 g) received either an excitotoxic lesion of the ventral hippocampus (NVHL) or sham procedure, as previously described (Chambers and Lipska, 2011). Pups were anesthetized with hypothermia and secured to a Styrofoam platform attached to a stereotaxic frame (David Kopf Instruments, Tujunga, CA). […]

SZ = conditions: in vivo; cited from earlier work

CC(=O)N[C@@H](CS)C(=O)O [NAC, N-acetyl cysteine]
effect on PVI count reduction in PFC [1]: prevented; also recorded: rescued
effect on 8-oxo-dG labeling in PV interneurons ([2]; NVHL rats, developmental treatment): prevented
effect on increase in 8-oxo-dG staining in PFC ([2]; P21 NVHL rats, drinking water 900 mg/l from P5): completely prevented
effect on increase in 8-oxo-dG in PFC ([2]; P61 NVHL rats, drinking water 900 mg/l, P5 to P50): prevented
multiple markers of oxidative stress ([2]; adult NVHL rats, juvenile treatment, to levels comparable to control rats): decreased
mismatch negativity in SZ (SZ): improved

From US20240050409A1, “Methods and Compositions for Treating Psychotic Disorders” (SOUND PHARMACEUTICALS INCORPORATED, priority 2014, published 2024)
